Experimental findings from PubChem BioAssay AID1159564 (GlaxoSmithKline (GSK), 2015) are described below.

The subject of the experiment is L. donovani-infected THP-1 macrophages, intracellular amastigote imaging. In words: intracellular L. donovani amastigote inhibition, imaging, THP-1 host macrophages, host toxicity (AID 1159564).
Setting [1] is: measured here: THP-1 host cell toxicity.
[2] abbreviates: measured here: amastigotes per macrophage.

Activity calls are given as the source filed them. No rule for the calls is given here. Some results are limits rather than exact numbers.

For the compound `CC1CN(S(=O)(=O)c2ccc(NC(=O)c3cc(C4CC4)nc4c3cnn4C(C)C)cc2)CC(C)O1` (configuration not stated), the IC50 is > 50 µM (inactive). Besides, the IC50 under setting [1] was determined as 10 µM. The compound further displayed a half-maximal inhibitory concentration (IC50) under setting [2] above 50 µM.
Take `O=C(Nc1ccc(S(=O)(=O)N2CCCC2)cc1)c1ccc([N+](=O)[O-])s1`: the IC50 is 1.6 µM. Also, under setting [1], the half-inhibitory concentration (IC50) is above 50 µM. Moreover, the IC50 under setting [2] turned out to be 1 µM.
On the same counts, the results for `CC(C)C[C@H](NC(=O)c1csc(-c2cccs2)n1)C(=O)NC1(C#N)CC1` are > 50 µM (inactive), above 50 µM and above 50 µM.
For `O=C(COc1nn(-c2ccccc2)c2ncccc12)NCc1ccccc1`, the IC50 was 0.32 µM. For the same compound, the IC50 under setting [1] is above 50 µM. The IC50 under setting [2] was determined as 0.079 µM.
On to `O=C(NCCc1csc(-c2ccc(F)cc2)n1)c1ccco1`, for which the IC50 was > 50 µM (inactive). Moreover, the IC50 under setting [1] is above 50 µM. In addition, the IC50 under setting [2] is above 50 µM.
Regarding `O=C(CN(Cc1ccccn1)Cc1ccccn1)NCc1ccc(-c2csnn2)cc1`, the IC50 is 5 µM. This compound had an IC50 under setting [1] above 79 µM. Under setting [2], the IC50 came out at 5 µM.
As to `CCC(CC)C(=O)Nc1ccc(-c2nnc(-c3ccc(OC)cc3)o2)cc1`, the IC50 was > 50 µM (inactive). The IC50 under setting [1] was above 50 µM. Under setting [2], the IC50 is above 50 µM.
Take `COc1ccc2ncc(=O)n(CCN3CCC(NCc4ccc(-c5cccs5)cc4)CC3)c2n1`: the IC50 was 3.2 µM. The compound also had an IC50 under setting [1] of 10 µM. The IC50 under setting [2] is 1.3 µM.
Consider `Cc1nn(C2CCS(=O)(=O)C2)c(C)c1CN(C)C(=O)C=Cc1sc2ccccc2c1Cl` (configuration not stated), for which the IC50 was 40 µM. Under setting [1], this compound returned an IC50 of 20 µM. Also, under setting [2], the IC50 was 13 µM.
`N#Cc1nc(C=Cc2ccccc2)oc1NCc1cccnc1`: the IC50 was 40 µM. Under setting [1], the half-maximal inhibitory concentration (IC50) came out at 32 µM. Moreover, the IC50 under setting [2] came out at 32 µM.
For `CC(C)(C)c1csc(NC(=O)c2ccc([N+](=O)[O-])s2)n1`, the half-inhibitory concentration (IC50) is 3.2 µM. Under setting [1], this compound returned a half-maximal inhibitory concentration (IC50) above 50 µM. Under setting [2], this compound displayed an IC50 of 2.5 µM.
On the same counts, the results for `COCCn1c(-c2ccc3c(c2)OCO3)cnc1NCc1ccccc1OC` are 10 µM, 40 µM and 5 µM.
For the compound `Cc1cc(N2CCc3ccccc3C2)nc(Nc2ccc(S(=O)(=O)N3CCOCC3)cc2)n1`, the half-inhibitory concentration (IC50) was 5 µM. In addition, the IC50 under setting [1] came out at 25 µM. Under setting [2], this compound returned an IC50 of 1.6 µM.
For `Cc1nc(-c2ccc3c(c2)OCO3)sc1C(=O)NCc1ccc2c(c1)OCO2` the same measures were 0.25 µM, above 50 µM and 0.79 µM.
For `Cc1cn[nH]c1C1CCCN(Cc2nc3ccccc3n2C)C1` (configuration not stated), the IC50 was 4 µM. In addition, the IC50 under setting [1] is 20 µM. Under setting [2], this compound registered an IC50 of 3.2 µM.
Regarding `CCN(CC)S(=O)(=O)c1ccc(OC)c(NC(=O)c2ccc([N+](=O)[O-])s2)c1`, the IC50 was > 50 µM (inactive). The compound further yielded an IC50 under setting [1] above 50 µM. This compound registered an IC50 under setting [2] above 50 µM.
As to `O=[N+]([O-])c1ccc(-c2nnn(-c3ccc(Cl)cc3)n2)o1`, the IC50 was > 50 µM (inactive). The same compound had an IC50 under setting [1] above 50 µM. The IC50 under setting [2] is above 50 µM.
Take `O=C(CC1(O)C(=O)N(Cc2cccs2)c2ccc(Br)cc21)c1cccnc1` (configuration not stated): the IC50 was > 50 µM (inactive). Under setting [1], the IC50 was 20 µM. Further, under setting [2], the IC50 is above 50 µM.
Take `COc1ccc(-c2csc(NC(=O)c3ccc([N+](=O)[O-])s3)n2)cc1`: the IC50 was 4 µM. In addition, the IC50 under setting [1] was above 50 µM. The same compound gave an IC50 under setting [2] of 1.6 µM.
On to `COc1ccc(-c2csc(NC(=O)c3ccc([N+](=O)[O-])s3)n2)cc1OC`, for which the IC50 is 1.3 µM. Also, under setting [1], the IC50 came out at 32 µM. This compound also had an IC50 under setting [2] of 1.3 µM.
With `CCN(CC)c1ccc(S(=O)(=O)N(CC)CC)c2nonc12`, the IC50 was 0.4 µM. The compound further gave an IC50 under setting [1] of 16 µM. In addition, the half-maximal inhibitory concentration (IC50) under setting [2] amounted to 0.13 µM.
For `O=C1c2cnc(N3CCCC3)nc2CN1c1ccc2c(c1)OCO2` the same measures were 10 µM, above 50 µM and 6.3 µM.
`O=C(Nc1ccccc1)Nc1nc(-c2ccccn2)cs1`: the IC50 is 0.4 µM. In addition, the IC50 under setting [1] amounted to 6.3 µM. Also, the IC50 under setting [2] was 0.25 µM.
For `Cc1nc2c(-c3nc(-c4ccc(N)cc4)n[nH]3)cccn2c1C` the same measures were 2 µM, 13 µM and 1.6 µM.
For `O=C(Cn1cnc2c(-c3ccccc3)csc2c1=O)N1CCCCC1`, the IC50 was > 50 µM (inactive). For the same compound, the 50% inhibitory concentration (IC50) under setting [1] is above 50 µM. Under setting [2], this compound had an IC50 above 50 µM.
Take `COc1cc(-c2noc(CC#N)n2)ccc1OC(F)F`: the IC50 is > 50 µM (inactive). In addition, the IC50 under setting [1] is 50 µM. Under setting [2], the concentration for half-maximal inhibition (IC50) was above 50 µM.
Turning to `CCC(CC)C(=O)Nc1cccc(C(=O)Nc2nnc(C3CCCCC3)s2)c1`, the IC50 is > 50 µM (inactive). The compound further gave an IC50 under setting [1] above 50 µM. Moreover, the IC50 under setting [2] is above 50 µM.
For the compound `O=C(C1CCCCC1)N1CCN(c2nnc(-c3ccccc3)c3ccccc23)CC1`, the IC50 was > 50 µM (inactive). Further, under setting [1], the IC50 was 50 µM. Also, under setting [2], the IC50 came out at 20 µM.
On the same counts, the results for `Cc1nccn1C1CCCN(C(=O)c2cc3c(F)cccc3s2)C1` (configuration not stated) are > 50 µM (inactive), above 50 µM and above 50 µM.
Turning to `COc1ccccc1C=CCN1C[C@H]2CCC[C@@H](C1)C2(O)c1cccnc1` (some centres not stated), the IC50 was > 50 µM (inactive). Moreover, the IC50 under setting [1] is 40 µM. In addition, the half-maximal inhibitory concentration (IC50) under setting [2] came out at 32 µM.
As to `O=C(Nc1nccs1)c1ccccc1Cn1cc([N+](=O)[O-])cn1`, the IC50 is > 50 µM (inactive). The compound also yielded an IC50 under setting [1] above 50 µM. Besides, the IC50 under setting [2] is above 50 µM.
Take `O=C(Cn1cnc([N+](=O)[O-])n1)Nc1ccc(Cl)cc1C(=O)c1ccccc1`: the IC50 is > 50 µM (inactive). In addition, the half-maximal inhibitory concentration (IC50) under setting [1] is above 50 µM. Further, the IC50 under setting [2] is above 50 µM.
On to `Cc1cc(NC(=O)CC2CCCCC2)n(-c2nc3c(c(=O)[nH]2)CCC3)n1`, for which the IC50 is 3.2 µM. Besides, under setting [1], the IC50 worked out at 4 µM. Under setting [2], this compound displayed an IC50 of 1.6 µM.
Consider `CS(=O)(=O)N1CCC(Nc2ncc(Br)c(Nc3cccc(F)c3C(N)=O)n2)CC1`, for which the IC50 is 1.6 µM. Moreover, under setting [1], the IC50 is 1 µM. The IC50 under setting [2] stood at 0.79 µM.
On the same counts, the results for `N#Cc1cc([N+](=O)[O-])ccc1NC1CCCCCC1` are > 50 µM (inactive), above 50 µM and above 50 µM.
For the compound `Cc1cc(N(C)C)nc2ccc(Cc3cnc(N)nc3N)cc12`, the half-inhibitory concentration (IC50) was 32 µM. Besides, the IC50 under setting [1] is 40 µM. In addition, the IC50 under setting [2] is 40 µM.
As for `N#Cc1cccc(Nc2nccc(N3CCC(NS(=O)(=O)c4cccc(C#N)c4)CC3)n2)c1`, the IC50 is 10 µM. The same compound came in with an IC50 under setting [1] above 50 µM. Under setting [2], this compound came in with a concentration for half-maximal inhibition (IC50) of 6.3 µM.
For the compound `COCc1cc(Nc2ccc(Cl)cc2)nc(-c2ccccn2)n1`, the IC50 was 1.3 µM. This compound registered an IC50 under setting [1] of 20 µM. Under setting [2], this compound displayed an IC50 of 0.79 µM.
For the compound `O=C(CN1CCN(S(=O)(=O)c2cccc([N+](=O)[O-])c2)CC1)Nc1ccc(Oc2ccccc2)cc1`, the IC50 is 7.9 µM. Besides, the IC50 under setting [1] is above 50 µM. This compound came in with an IC50 under setting [2] of 2 µM.
For `Cc1cc(NC(=O)c2ccc([N+](=O)[O-])s2)ccc1Br`, the IC50 was 2.5 µM. Also, under setting [1], the half-maximal inhibitory concentration (IC50) turned out to be 16 µM. For the same compound, under setting [2], the IC50 was found to be 1.6 µM.
In the case of `Cc1ccc(C)c(OC2CCN(C(=O)C(C)n3ccnc3)CC2)c1` (configuration not stated), the IC50 was > 50 µM (inactive). The same compound yielded a half-maximal inhibitory concentration (IC50) under setting [1] above 50 µM. This compound came in with an IC50 under setting [2] of 0.32 µM.
With `O=C(CSc1ccc(F)cc1)N[C@@H](Cc1cnc[nH]1)C(=O)NCCc1ccccc1`, the IC50 was > 50 µM (inactive). The compound also yielded an IC50 under setting [1] above 50 µM. This compound returned an IC50 under setting [2] above 50 µM.
Turning to `CCCCCNC(=O)c1c[nH]c2ccc(S(=O)(=O)N(C)c3ccc(OCC)cc3)cc2c1=O`, the IC50 is > 50 µM (inactive). The compound further displayed an IC50 under setting [1] above 50 µM. Under setting [2], the concentration for half-maximal inhibition (IC50) was above 50 µM.
Regarding `CCOc1cnn(C)c(=O)c1Nc1ccc(C(=O)NCc2ccc(F)cc2)cc1`, the IC50 was > 50 µM (inactive). This compound returned an IC50 under setting [1] of 32 µM. The IC50 under setting [2] was above 50 µM.
On to `c1ccc(-c2nc(NC3CCCCC3)cc(C3CC3)n2)nc1`, for which the IC50 was 4 µM. The IC50 under setting [1] turned out to be 20 µM. In addition, under setting [2], the IC50 was 3.2 µM.
As for `Cc1ccc(-c2csc(NC(=O)C=Cc3ccc(S(=O)(=O)N4CCOCC4)cc3)n2)o1`, the IC50 was 5 µM. Moreover, the IC50 under setting [1] was above 50 µM. Under setting [2], this compound displayed an IC50 of 0.79 µM.
Regarding `CCCN(Cc1ccc(OC)c(OC)c1)Cc1cc(=O)c2c(C)cc(C)cc2[nH]1`, the IC50 was 25 µM. In addition, under setting [1], the IC50 was 5 µM. For the same compound, under setting [2], the IC50 was 20 µM.
For `COc1cccc(Nc2cc(C)nc(-c3ccccn3)n2)c1` the same measures were 2 µM, above 50 µM and 1.3 µM.
Regarding `COc1ccc(C2CC(c3ccccc3Cl)=NN2C(=O)CNC(=O)C2CCCC2)cc1` (configuration not stated), the IC50 was > 50 µM (inactive). The compound also gave an IC50 under setting [1] above 50 µM. Besides, the IC50 under setting [2] is above 50 µM.
On to `Cc1cccc(NS(=O)(=O)c2ccc3c(c2)C(=O)c2cc(S(=O)(=O)Nc4cccc(C)c4C)ccc2-3)c1C`, for which the IC50 is > 50 µM (inactive). In addition, the IC50 under setting [1] is above 50 µM. Also, the IC50 under setting [2] is above 50 µM.
`COc1ccc(NS(=O)(=O)c2cc(NC(=O)c3ccc([N+](=O)[O-])s3)ccc2OC)cc1`: the IC50 was 0.79 µM. Under setting [1], this compound gave an IC50 of 13 µM. The IC50 under setting [2] amounted to 0.79 µM.
In the case of `CC(C)Nc1nccc(-c2c(-c3ccc(F)cc3)ncn2C2CCOCC2)n1`, the IC50 was 25 µM. Under setting [1], the IC50 was above 50 µM. This compound gave an IC50 under setting [2] of 16 µM.
`Cc1cc(N(C)C)nc(Nc2ccccc2C)n1`: the half-inhibitory concentration (IC50) was 32 µM. The IC50 under setting [1] was 40 µM. This compound also had an IC50 under setting [2] of 16 µM.
Regarding `O=C(Nc1nc(-c2ccccn2)cs1)c1ccccc1-n1cnnn1`, the IC50 is 6.3 µM. This compound also came in with an IC50 under setting [1] of 5 µM. The same compound returned an IC50 under setting [2] of 4 µM.

Broadly, the IC50 is the point on the concentration scale where inhibition reaches its midpoint.
